# Source: PMC8909834, “An Orally Bioavailable and Highly Efficacious Inhibitor of CDK9/FLT3 for the Treatment of Acute Myeloid Leukemia” (Cancers, 2022)
# Assays:
# Assay in all cases: Kinase Hotspot radiolabel assay
# Format in all cases: biochemical
# Settings in all cases: read-out: % Residual Activity
# TIE2/TEK = target: T1, TIE2/TEK (Homo sapiens, UniProt Q02763)
# T1 construct: purchased Reaction Biology Corporation (Kinase HotSpot)
# Procedure, shortened: (§1)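 Data come from a 369-member kinase selectivity screen run as a Hotspot radiolabel assay. Compound concentration was 1 µM, and Ki was determined wherever inhibition topped 90%.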
# NEK7 = target: T2, NEK7 (Homo sapiens, UniProt Q8TDX7)
# T2 construct: purchased Reaction Biology Corporation (Kinase HotSpot)
# T2 sequence (Q8TDX7 whole entry): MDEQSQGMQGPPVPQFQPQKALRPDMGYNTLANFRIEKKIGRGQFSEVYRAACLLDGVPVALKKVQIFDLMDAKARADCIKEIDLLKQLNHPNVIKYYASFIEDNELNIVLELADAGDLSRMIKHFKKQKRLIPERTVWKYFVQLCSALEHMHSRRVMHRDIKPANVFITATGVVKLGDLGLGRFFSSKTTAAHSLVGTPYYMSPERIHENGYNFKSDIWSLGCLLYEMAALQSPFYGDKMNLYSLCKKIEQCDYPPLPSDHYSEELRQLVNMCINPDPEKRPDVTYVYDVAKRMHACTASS
# Procedure, shortened: as §1
# CLK1 = target: T3, CLK1 (Homo sapiens, UniProt P49759)
# T3 construct: purchased Reaction Biology Corporation (Kinase HotSpot)
# Procedure, shortened: as §1
# HIPK4 = target: T4, HIPK4 (Homo sapiens, UniProt Q8NE63)
# T4 construct: purchased Reaction Biology Corporation (Kinase HotSpot)
# Procedure, shortened: as §1
# CAMK1a = target: T5, CAMK1a (Homo sapiens, UniProt Q14012)
# T5 construct: purchased Reaction Biology Corporation (Kinase HotSpot)
# Procedure, shortened: as §1
# CDK2/Cyclin A1 = target: T6, CDK2/Cyclin A1 (Homo sapiens, UniProt P24941)
# T6 construct: purchased Reaction Biology Corporation (Kinase HotSpot)
# Procedure, shortened: as §1
# MLK1/MAP3K9 = target: T7, MLK1/MAP3K9 (Homo sapiens, UniProt P80192)
# T7 construct: purchased Reaction Biology Corporation (Kinase HotSpot)
# Procedure, shortened: as §1
# MLCK/MYLK = target: T8, MLCK/MYLK (Homo sapiens, UniProt Q15746)
# T8 construct: purchased Reaction Biology Corporation (Kinase HotSpot)
# Procedure, shortened: as §1
# ERN2/IRE2 = target: T9, ERN2/IRE2 (Homo sapiens, UniProt Q76MJ5)
# T9 construct: purchased Reaction Biology Corporation (Kinase HotSpot)
# T9 sequence (Q76MJ5 35-926): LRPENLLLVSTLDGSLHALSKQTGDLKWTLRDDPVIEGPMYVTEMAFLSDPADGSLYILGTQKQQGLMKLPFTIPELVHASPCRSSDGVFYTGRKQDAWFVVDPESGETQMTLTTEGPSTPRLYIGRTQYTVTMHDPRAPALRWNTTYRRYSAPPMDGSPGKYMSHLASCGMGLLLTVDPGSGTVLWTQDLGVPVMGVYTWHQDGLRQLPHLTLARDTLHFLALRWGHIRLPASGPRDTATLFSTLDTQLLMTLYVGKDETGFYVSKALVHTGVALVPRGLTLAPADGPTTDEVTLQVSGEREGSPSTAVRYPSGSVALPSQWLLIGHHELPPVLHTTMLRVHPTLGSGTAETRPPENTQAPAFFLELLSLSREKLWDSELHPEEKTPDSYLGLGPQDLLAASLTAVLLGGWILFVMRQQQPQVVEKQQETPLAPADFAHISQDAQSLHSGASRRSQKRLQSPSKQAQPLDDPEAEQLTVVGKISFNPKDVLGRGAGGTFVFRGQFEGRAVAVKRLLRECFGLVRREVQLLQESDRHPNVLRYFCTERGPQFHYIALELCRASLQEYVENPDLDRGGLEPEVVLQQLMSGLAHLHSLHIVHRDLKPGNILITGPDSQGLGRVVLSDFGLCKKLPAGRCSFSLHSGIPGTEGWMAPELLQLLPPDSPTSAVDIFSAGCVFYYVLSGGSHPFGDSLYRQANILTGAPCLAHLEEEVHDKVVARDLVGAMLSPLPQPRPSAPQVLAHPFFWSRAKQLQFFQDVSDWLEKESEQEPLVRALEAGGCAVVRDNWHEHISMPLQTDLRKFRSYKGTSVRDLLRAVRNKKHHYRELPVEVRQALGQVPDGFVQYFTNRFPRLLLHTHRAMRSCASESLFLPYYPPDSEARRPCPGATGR
# Procedure, shortened: as §1
# CLK3 = target: T10, CLK3 (Homo sapiens, UniProt P49761)
# T10 construct: purchased Reaction Biology Corporation (Kinase HotSpot)
# T10 sequence (P49761 whole entry): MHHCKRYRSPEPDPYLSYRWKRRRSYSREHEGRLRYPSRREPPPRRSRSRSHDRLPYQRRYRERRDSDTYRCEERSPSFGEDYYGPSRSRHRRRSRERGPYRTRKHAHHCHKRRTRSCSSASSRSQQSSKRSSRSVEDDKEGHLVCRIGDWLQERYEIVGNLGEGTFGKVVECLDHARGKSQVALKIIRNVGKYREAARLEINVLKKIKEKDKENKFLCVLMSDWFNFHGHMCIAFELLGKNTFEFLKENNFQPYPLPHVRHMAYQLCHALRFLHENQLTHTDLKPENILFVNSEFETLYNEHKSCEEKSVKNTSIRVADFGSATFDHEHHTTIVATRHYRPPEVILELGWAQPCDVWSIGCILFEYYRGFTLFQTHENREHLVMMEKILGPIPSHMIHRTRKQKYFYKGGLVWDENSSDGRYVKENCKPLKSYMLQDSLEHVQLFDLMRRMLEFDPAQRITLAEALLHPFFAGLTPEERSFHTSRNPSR
# Procedure, shortened: as §1
# IGF1R = target: T11, IGF1R (Homo sapiens, UniProt P08069)
# T11 construct: purchased Reaction Biology Corporation (Kinase HotSpot)
# T11 sequence (P08069 31-1367): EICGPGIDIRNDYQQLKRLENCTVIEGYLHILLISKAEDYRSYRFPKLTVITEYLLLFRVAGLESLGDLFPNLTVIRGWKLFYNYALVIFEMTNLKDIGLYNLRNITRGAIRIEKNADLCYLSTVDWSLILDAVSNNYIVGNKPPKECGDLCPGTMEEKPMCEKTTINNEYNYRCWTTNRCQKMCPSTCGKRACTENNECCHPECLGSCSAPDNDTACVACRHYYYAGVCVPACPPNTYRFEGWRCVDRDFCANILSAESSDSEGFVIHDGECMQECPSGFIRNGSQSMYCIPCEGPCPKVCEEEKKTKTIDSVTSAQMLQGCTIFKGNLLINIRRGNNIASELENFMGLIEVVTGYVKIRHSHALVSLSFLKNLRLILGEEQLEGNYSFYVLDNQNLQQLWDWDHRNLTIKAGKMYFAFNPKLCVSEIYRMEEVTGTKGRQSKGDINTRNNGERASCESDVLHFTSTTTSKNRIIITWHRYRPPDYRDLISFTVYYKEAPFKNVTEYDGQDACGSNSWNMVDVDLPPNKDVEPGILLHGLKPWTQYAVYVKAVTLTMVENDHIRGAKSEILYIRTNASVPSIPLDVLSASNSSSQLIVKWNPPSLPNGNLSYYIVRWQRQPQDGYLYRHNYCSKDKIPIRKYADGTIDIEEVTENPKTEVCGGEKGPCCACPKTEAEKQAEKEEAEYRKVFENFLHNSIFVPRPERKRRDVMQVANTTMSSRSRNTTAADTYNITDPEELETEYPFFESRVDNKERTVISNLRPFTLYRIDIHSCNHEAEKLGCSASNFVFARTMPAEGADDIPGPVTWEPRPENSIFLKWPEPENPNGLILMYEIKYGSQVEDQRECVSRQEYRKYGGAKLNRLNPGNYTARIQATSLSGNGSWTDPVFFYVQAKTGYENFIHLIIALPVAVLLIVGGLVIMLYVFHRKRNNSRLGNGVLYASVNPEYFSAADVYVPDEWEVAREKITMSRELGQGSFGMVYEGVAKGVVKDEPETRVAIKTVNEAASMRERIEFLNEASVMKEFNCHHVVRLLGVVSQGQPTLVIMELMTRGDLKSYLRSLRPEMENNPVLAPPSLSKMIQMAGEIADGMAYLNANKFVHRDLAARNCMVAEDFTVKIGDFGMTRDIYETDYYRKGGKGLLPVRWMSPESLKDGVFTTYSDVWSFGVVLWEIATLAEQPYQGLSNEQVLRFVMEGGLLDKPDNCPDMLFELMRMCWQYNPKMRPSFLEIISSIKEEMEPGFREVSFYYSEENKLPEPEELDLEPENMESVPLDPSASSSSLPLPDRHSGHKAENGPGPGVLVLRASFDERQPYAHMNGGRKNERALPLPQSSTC
# Procedure, shortened: as §1
# RON/MST1R = target: T12, RON/MST1R (Homo sapiens, UniProt Q04912)
# T12 construct: purchased Reaction Biology Corporation (Kinase HotSpot)
# Procedure, shortened: as §1
# MLK3/MAP3K11 = target: T13, MLK3/MAP3K11 (Homo sapiens, UniProt Q16584)
# T13 construct: purchased Reaction Biology Corporation (Kinase HotSpot)
# Procedure, shortened: as §1
# MKK6 = target: T14, MKK6 (Homo sapiens, UniProt P52564)
# T14 construct: purchased Reaction Biology Corporation (Kinase HotSpot)
# T14 sequence (P52564 whole entry): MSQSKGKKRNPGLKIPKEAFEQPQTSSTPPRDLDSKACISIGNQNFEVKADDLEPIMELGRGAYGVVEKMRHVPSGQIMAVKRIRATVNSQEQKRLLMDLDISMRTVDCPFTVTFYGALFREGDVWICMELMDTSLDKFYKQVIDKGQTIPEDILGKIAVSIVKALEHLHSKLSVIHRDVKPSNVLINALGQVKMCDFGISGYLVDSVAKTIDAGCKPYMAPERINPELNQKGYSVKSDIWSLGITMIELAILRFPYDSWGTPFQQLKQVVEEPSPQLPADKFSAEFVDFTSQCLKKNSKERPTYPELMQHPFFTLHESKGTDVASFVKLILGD
# Procedure, shortened: as §1
# CDK1/cyclin B = target: T15, CDK1/cyclin B (Homo sapiens, UniProt P06493)
# T15 construct: purchased Reaction Biology Corporation (Kinase HotSpot)
# Procedure, shortened: as §1
# BRAF = target: T16, BRAF (Homo sapiens, UniProt P15056)
# T16 construct: purchased Reaction Biology Corporation (Kinase HotSpot)
# Procedure, shortened: as §1
# MEK1 = target: T17, MEK1 (Homo sapiens, UniProt Q02750)
# T17 construct: purchased Reaction Biology Corporation (Kinase HotSpot)
# Procedure, shortened: as §1
# IR = target: T18, IR (Homo sapiens, UniProt P06213)
# T18 construct: purchased Reaction Biology Corporation (Kinase HotSpot)
# Procedure, shortened: as §1
# GLK/MAP4K3 = target: T19, GLK/MAP4K3 (Homo sapiens, UniProt Q8IVH8)
# T19 construct: purchased Reaction Biology Corporation (Kinase HotSpot)
# Procedure, shortened: as §1
# CDK1/cyclin A = target: T20, CDK1/cyclin A (Homo sapiens, UniProt P06493)
# T20 construct: purchased Reaction Biology Corporation (Kinase HotSpot)
# Procedure, shortened: as §1
# CAMKK1 = target: T21, CAMKK1 (Homo sapiens, UniProt Q8N5S9)
# T21 construct: purchased Reaction Biology Corporation (Kinase HotSpot)
# Procedure, shortened: as §1
# GRK6 = target: T22, GRK6 (Homo sapiens, UniProt P43250)
# T22 construct: purchased Reaction Biology Corporation (Kinase HotSpot)
# T22 sequence (P43250 whole entry): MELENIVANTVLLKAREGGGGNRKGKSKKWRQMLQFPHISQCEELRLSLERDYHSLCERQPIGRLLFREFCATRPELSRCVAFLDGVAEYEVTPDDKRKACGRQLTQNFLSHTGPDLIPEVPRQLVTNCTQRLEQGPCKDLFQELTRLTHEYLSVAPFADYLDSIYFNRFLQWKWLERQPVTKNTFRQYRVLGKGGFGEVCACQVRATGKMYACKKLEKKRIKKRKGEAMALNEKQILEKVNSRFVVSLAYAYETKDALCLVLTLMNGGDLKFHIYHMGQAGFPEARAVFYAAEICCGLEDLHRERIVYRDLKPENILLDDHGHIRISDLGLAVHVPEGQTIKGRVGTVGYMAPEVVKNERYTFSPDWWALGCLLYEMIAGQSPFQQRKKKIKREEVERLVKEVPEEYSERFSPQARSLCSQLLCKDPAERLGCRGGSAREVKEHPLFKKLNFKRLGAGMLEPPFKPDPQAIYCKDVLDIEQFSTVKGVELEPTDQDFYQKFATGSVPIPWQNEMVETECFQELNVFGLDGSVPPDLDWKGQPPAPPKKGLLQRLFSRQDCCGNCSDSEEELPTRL
# Procedure, shortened: as §1
# ROCK1 = target: T23, ROCK1 (Homo sapiens, UniProt Q13464)
# T23 construct: purchased Reaction Biology Corporation (Kinase HotSpot)
# Procedure, shortened: as §1
# STK38L/NDR2 = target: T24, STK38L/NDR2 (Homo sapiens, UniProt Q9Y2H1)
# T24 construct: purchased Reaction Biology Corporation (Kinase HotSpot)
# Procedure, shortened: as §1
# STK32B/YANK2 = target: T25, STK32B/YANK2 (Homo sapiens, UniProt Q9NY57)
# T25 construct: purchased Reaction Biology Corporation (Kinase HotSpot)
# Procedure, shortened: as §1
# JNK3 = target: T26, JNK3 (Homo sapiens, UniProt P53779)
# T26 construct: purchased Reaction Biology Corporation (Kinase HotSpot)
# T26 sequence (P53779 whole entry): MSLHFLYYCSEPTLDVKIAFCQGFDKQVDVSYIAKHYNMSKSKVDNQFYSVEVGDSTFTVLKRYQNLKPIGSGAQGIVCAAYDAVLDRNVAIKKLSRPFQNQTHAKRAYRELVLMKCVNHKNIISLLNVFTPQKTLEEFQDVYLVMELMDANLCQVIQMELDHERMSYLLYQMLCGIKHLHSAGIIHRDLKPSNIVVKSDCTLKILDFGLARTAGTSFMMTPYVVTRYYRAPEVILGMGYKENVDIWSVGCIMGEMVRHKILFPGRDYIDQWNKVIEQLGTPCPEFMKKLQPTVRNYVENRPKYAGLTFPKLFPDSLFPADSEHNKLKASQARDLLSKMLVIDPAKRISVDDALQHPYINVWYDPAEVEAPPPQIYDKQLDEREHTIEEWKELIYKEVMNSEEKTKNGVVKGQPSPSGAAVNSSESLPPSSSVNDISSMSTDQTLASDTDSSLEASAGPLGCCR
# Procedure, shortened: as §1
# TEC = target: T27, TEC (Homo sapiens, UniProt P42680)
# T27 construct: purchased Reaction Biology Corporation (Kinase HotSpot)
# Procedure, shortened: as §1
# DLK/MAP3K12 = target: T28, DLK/MAP3K12 (Homo sapiens, UniProt Q12852)
# T28 construct: purchased Reaction Biology Corporation (Kinase HotSpot)
# Procedure, shortened: as §1
# JAK2 = target: T29, JAK2 (Homo sapiens, UniProt O60674)
# T29 construct: purchased Reaction Biology Corporation (Kinase HotSpot)
# Procedure, shortened: as §1
# MAK = target: T30, MAK (Homo sapiens, UniProt P20794)
# T30 construct: purchased Reaction Biology Corporation (Kinase HotSpot)
# T30 sequence (P20794 whole entry): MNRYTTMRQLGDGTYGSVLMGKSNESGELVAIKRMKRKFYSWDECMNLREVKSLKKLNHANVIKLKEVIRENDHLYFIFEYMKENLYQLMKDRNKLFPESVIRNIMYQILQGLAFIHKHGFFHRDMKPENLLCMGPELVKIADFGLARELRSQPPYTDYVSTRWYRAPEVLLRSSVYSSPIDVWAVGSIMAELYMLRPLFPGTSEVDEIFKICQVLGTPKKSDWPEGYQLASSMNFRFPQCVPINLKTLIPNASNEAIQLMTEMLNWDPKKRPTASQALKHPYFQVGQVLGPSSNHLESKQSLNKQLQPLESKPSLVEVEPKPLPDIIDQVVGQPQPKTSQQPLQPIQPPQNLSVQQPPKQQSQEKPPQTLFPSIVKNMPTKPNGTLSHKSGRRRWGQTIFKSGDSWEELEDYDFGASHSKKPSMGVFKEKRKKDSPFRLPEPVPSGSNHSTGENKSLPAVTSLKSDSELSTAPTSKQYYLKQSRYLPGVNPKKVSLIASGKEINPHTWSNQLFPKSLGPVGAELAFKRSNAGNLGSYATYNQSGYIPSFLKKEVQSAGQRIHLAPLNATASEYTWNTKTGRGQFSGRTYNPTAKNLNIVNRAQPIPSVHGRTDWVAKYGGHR
# Procedure, shortened: as §1
structure (smiles),measurement,setting,value
Cc1cnc(N[C@H]2CC[C@H](N)CC2)nc1-c1cnc2ccc(-c3ccccc3)cn12 [CDDD11-8],remaining activity at 1 µM,TIE2/TEK,61.2%
same,remaining activity at 1 µM,NEK7,102%
same,remaining activity at 1 µM,CLK1,28.9%
same,remaining activity at 1 µM,HIPK4,52.4%
same,remaining activity at 1 µM,CAMK1a,80.7%
same,remaining activity at 1 µM,CDK2/Cyclin A1,55.7%
same,remaining activity at 1 µM,MLK1/MAP3K9,43%
same,remaining activity at 1 µM,MLCK/MYLK,57.2%
same,remaining activity at 1 µM,ERN2/IRE2,45.4%
same,remaining activity at 1 µM,CLK3,85.9%
same,remaining activity at 1 µM,IGF1R,79%
same,remaining activity at 1 µM,RON/MST1R,97.9%
same,remaining activity at 1 µM,MLK3/MAP3K11,45.1%
same,remaining activity at 1 µM,MKK6,95.7%
same,remaining activity at 1 µM,CDK1/cyclin B,69.5%
same,remaining activity at 1 µM,BRAF,99.7%
same,remaining activity at 1 µM,MEK1,98.9%
same,remaining activity at 1 µM,IR,101%
same,remaining activity at 1 µM,GLK/MAP4K3,9.75%
same,remaining activity at 1 µM,CDK1/cyclin A,78%
same,remaining activity at 1 µM,CAMKK1,76.5%
same,remaining activity at 1 µM,GRK6,98.5%
same,remaining activity at 1 µM,ROCK1,76.3%
same,remaining activity at 1 µM,STK38L/NDR2,96.7%
same,remaining activity at 1 µM,STK32B/YANK2,96.7%
same,remaining activity at 1 µM,JNK3,81.3%
same,remaining activity at 1 µM,TEC,101%
same,remaining activity at 1 µM,DLK/MAP3K12,45.8%
same,remaining activity at 1 µM,JAK2,70%
same,remaining activity at 1 µM,MAK,67.6%
